In publication PMC8080067, “Tight binding of cytochrome b5 to cytochrome P450 17A1 is a critical feature of stimulation of C21 steroid lyase activity and androgen synthesis” (The Journal of Biological Chemistry, 2021):
Where a chain is given by its changes, count along the chain named.

Experiments:
P450 17A1 R358Q variant [1] = molecular target: T1, P450 17A1 R358Q variant (Homo sapiens, UniProt P05093, R358Q); assay: Substrate-binding spectral titration (type I, ΔA388-A423)
T1 sequence (P05093 1-508 R358Q): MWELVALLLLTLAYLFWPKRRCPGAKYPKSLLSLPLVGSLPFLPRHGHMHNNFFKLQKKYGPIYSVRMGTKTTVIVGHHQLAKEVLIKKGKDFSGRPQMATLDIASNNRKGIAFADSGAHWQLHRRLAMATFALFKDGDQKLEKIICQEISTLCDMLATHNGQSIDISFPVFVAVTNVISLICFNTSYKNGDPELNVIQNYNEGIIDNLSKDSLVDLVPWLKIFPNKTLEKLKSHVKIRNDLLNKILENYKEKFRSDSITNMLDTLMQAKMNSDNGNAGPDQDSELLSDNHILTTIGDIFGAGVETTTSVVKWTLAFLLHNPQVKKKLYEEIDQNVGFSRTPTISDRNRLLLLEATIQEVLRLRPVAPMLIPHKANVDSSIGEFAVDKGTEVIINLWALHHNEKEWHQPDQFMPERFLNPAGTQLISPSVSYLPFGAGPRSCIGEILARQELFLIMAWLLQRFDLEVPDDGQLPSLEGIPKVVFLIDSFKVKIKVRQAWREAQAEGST
Procedure: The purified enzymes were diluted in 100 mM potassium phosphate buffer (pH 7.4) and divided in two 1.0-ml glass cuvettes. Spectra (350–500 nm) were recorded using an OLIS-DW2 spectrophotometer (On-Line Instrument Systems) with subsequent additions of the substrate. Differences in the absorbance between the wavelength maximum and minimum were plotted versus the substrate concentration ([44]). Kd values were calculated using nonlinear regression analysis in GraphPad Prism software (GraphPad) and the quadratic equation: Y=B+A/2E[(Kd+E+X)−(Kd+E+X)^2−4EX], set in Prism as: Y = B + (A/2) ∗ (1/E) ∗ ((Kd + E + X)-sqrt((Kd + E + X)^ˆ2 - (4 ∗ E ∗ X))).
Figure S2. […] Increasing concentrations of substrates were added to the sample and reference cuvettes in each case.

P450 17A1 R347H variant = molecular target: T2, P450 17A1 R347H variant (Homo sapiens, UniProt P05093, R347H); assay: Steady-state kinetics of steroid 17α-hydroxylation and lyase reactions, reconstituted system
T2 sequence (P05093 1-508 R347H): T1 sequence (P05093 1-508 R358Q) with R347H, Q358R
Procedure: (§1) P450 catalytic activity assays to measure steroid hydroxylation and lyase reactions were carried out as described previously ([23], [37], [64]).
(§2) The reactions were initiated by adding an NADPH-regenerating system (final concentrations of 15 mM glucose 6-phosphate, 1.5 mM NADP^+, and 1 IU ml^−1 glucose 6-phosphate dehydrogenase) ([75]) and terminated by quenching and extracting with 2.0 ml CH2Cl2. Aliquots of the organic phases were dried and then dissolved in 100 μl of a CH3CN/H2O (1:1, v/v) mixture. […] The extraction procedure was then repeated, and the (Δ^4) reaction products were analyzed in a Waters Acquity UPLC system using a BEH C18 octadecylsilane column (2.1 mm × 100 mm, 1.7 μm). The reaction products were resolved using a mobile phase composed of solvents A (70% CH3OH, 30% H2O, v/v) and B (CH3CN), at a flow rate of 0.2 ml min^−1. […] Steady-state kinetic parameters were estimated using nonlinear regression of hyperbolic fits in GraphPad Prism software, with equations used for kcat and the specificity constant kcat/Km ([76]): Y = (ksp ∗ X)/(1 + (ksp ∗ X/kcat)) and then deriving Km by division.

P450 17A1 R358Q variant [2] = molecular target: T1, P450 17A1 R358Q variant; assay: as above
Procedure: as §1, §2

P450 17A1 E305G variant = molecular target: T3, P450 17A1 E305G variant (Homo sapiens, UniProt P05093, E305G); assay: as above
T3 sequence (P05093 1-508 E305G): T1 sequence (P05093 1-508 R358Q) with E305G, Q358R
Procedure: as §1, §2

[3] = lyase reaction (conversion to androstenedione or DHEA)

Row | SMILES | Kd (P450 17A1 R358Q variant [1]) [µM] | % WT (kcat/Km) (P450 17A1 R347H variant; 17α-hydroxylation) [%] | % WT (kcat/Km) (P450 17A1 R358Q variant [2]; 17α-hydroxylation) [%] | % WT (kcat/Km) (P450 17A1 E305G variant; 17α-hydroxylation) [%] | % WT (kcat/Km) (P450 17A1 R347H variant; [3]) [%] | % WT (kcat/Km) (P450 17A1 R358Q variant [2]; [3]) [%] | % WT (kcat/Km) (P450 17A1 E305G variant; [3]) [%]
1 | CC(=O)C1CCC2C3CC=C4C[C@@H](O)CC[C@]4(C)C3CC[C@]12C (stereo partly drawn) [Pregnenolone] | 0.15 ± 0.06 | 19 | 12 | 0.7 |  |  | 
2 | CC(=O)[C@H]1CC[C@H]2[C@@H]3CCC4=CC(=O)CC[C@]4(C)[C@H]3CC[C@]12C [Progesterone] | 0.26 ± 0.12 | 4 | 11 | 8 |  |  | 
3 | CC(=O)[C@@]1(O)CCC2C3CC=C4C[C@@H](O)CC[C@]4(C)C3CC[C@@]21C (stereo partly drawn) [17α-OH pregnenolone] | 0.26 ± 0.12 |  |  |  | 1.1 | 0.6 | 0.7
